# Measurements from patent US7608630B2, “Marasmius androsaceus L.es Fr extract, piperidone derivative, and their use for the preparation of hypertensives” (Hainan Yangpu New Special Pharmaceutical Co., Ltd., priority 2004, dated 2009).
# Several values for one entry are separate records, joined by “and”; a condition that tells them apart may be missing. Identical values can stand only once.
# Tested on: blood pressure of cats
# Assay: Reduction of blood pressure of cat
# Type: in vivo
# Conditions: for Average Diastolic pressure / Average Systolic pressure / Diastolic pressure, Animal 1-4 individually / Systolic pressure, Animal 1-4 individually / Diastolic pressure, individual animals: cats
# Experimental: A spontaneously hypertensive rat (SHR) was anesthetized with 40 mg/ml pentobarbital, and fixed by its back on an experimental stand. The skin at its neck was cut open after removing hair, and thereafter the right common carotid artery was separated with its proximal end being clamped by a artery clamp and its axifugal end being ligated by a thread. A V-shape cut was made with scissors at the axifugal end, into which an arterial cannula filled with heparin physiological saline was inserted. The arterial cannula was connected with a blood pressure transducer, and then the blood pressure transducer was connected to a computer-controlled three-way physiological-pharmacological recorder. The right femoral vein of the rat was separated and intubated for the injection of a drug. When the blood pressure became stable (i.e., the blood pressure contraction curve became straight), the rat was administered by intravenous route.
# Five cats of 2.5-3.2 kg were administered orally and intravenously respectively according to the method in Example 8, and then their systolic pressure and diastolic pressure were determined using normal cats non-administered as a control group.
# [1] = 5 mg/kg iv, 10 min after administration
# [2] = 5 mg/kg iv, 10 min after administration, 5 mg/kg
# [3] = 5 mg/kg iv, 20 min after administration
# [4] = 5 mg/kg iv, 20 min after administration, 5 mg/kg
# [5] = 5 mg/kg iv, 30 min after administration
# [6] = 5 mg/kg iv, 30 min after administration, 5 mg/kg
# [7] = 5 mg/kg iv, 40 min after administration
# [8] = 5 mg/kg iv, 40 min after administration, 5 mg/kg
# [9] = 5 mg/kg iv, 50 min after administration
# [10] = 5 mg/kg iv, 50 min after administration, 5 mg/kg
# [11] = 5 mg/kg iv, 60 min after administration
# [12] = 5 mg/kg iv, 60 min after administration, 5 mg/kg
# [13] = 5 mg/kg iv, 90 min after administration
# [14] = 5 mg/kg iv, 90 min after administration, 5 mg/kg
# [15] = 5 mg/kg iv, 120 min after administration
# [16] = 5 mg/kg iv, 120 min after administration, 5 mg/kg
# [17] = 5 mg/kg iv, 150 min after administration
# [18] = 5 mg/kg iv, 150 min after administration, 5 mg/kg
# [19] = 5 mg/kg iv, 180 min after administration
# [20] = 5 mg/kg iv, 180 min after administration, 5 mg/kg
# [21] = 5 mg/kg iv, before administration
# [22] = 5 mg/kg iv, before administration, 5 mg/kg
# [23] = 10 mg/kg o.s, 10 min after administration
# [24] = 10 mg/kg o.s, 10 min after administration, 10 mg/kg
# [25] = 10 mg/kg o.s, 20 min after administration
# [26] = 10 mg/kg o.s, 20 min after administration, 10 mg/kg
# [27] = 10 mg/kg o.s, 30 min after administration
# [28] = 10 mg/kg o.s, 30 min after administration, 10 mg/kg
smiles,measurement,setting,value
"CC1(C)CNCC(C)(C)C1=O [Compound of formula II, 3,3,5,5-tetramethyl-4-piperidone]",effect of reducing blood pressure,"5-20 mg/kg, model of anesthetic cat",very obvious effect of reducing blood pressure
same,Average Diastolic pressure,[1],106 mmHg
same,Average Systolic pressure,[1],135.5 mmHg
same,"Diastolic pressure, Animal 1-4 individually",[2],84 mmHg and 93 mmHg and 146 mmHg and 101 mmHg
same,"Systolic pressure, Animal 1-4 individually",[2],100 mmHg and 110 mmHg and 182 mmHg and 150 mmHg
same,Average Diastolic pressure,[3],105.75 mmHg
same,Average Systolic pressure,[3],139.75 mmHg
same,"Diastolic pressure, Animal 1-4 individually",[4],79 mmHg and 109 mmHg and 137 mmHg and 98 mmHg
same,"Systolic pressure, Animal 1-4 individually",[4],111 mmHg and 126 mmHg and 172 mmHg and 150 mmHg
same,Average Diastolic pressure,[5],106.25 mmHg
same,Average Systolic pressure,[5],141.25 mmHg
same,"Diastolic pressure, Animal 1-4 individually",[6],80 mmHg and 111 mmHg and 136 mmHg and 98 mmHg
same,"Systolic pressure, Animal 1-4 individually",[6],119 mmHg and 137 mmHg and 173 mmHg and 136 mmHg
same,Average Diastolic pressure,[7],110.5 mmHg
same,Average Systolic pressure,[7],144.5 mmHg
same,"Diastolic pressure, Animal 1-4 individually",[8],100 mmHg and 111 mmHg and 134 mmHg and 97 mmHg
same,"Systolic pressure, Animal 1-4 individually",[8],134 mmHg and 137 mmHg and 172 mmHg and 135 mmHg
same,Average Diastolic pressure,[9],117 mmHg
same,Average Systolic pressure,[9],152.25 mmHg
same,"Diastolic pressure, Animal 1-4 individually",[10],117 mmHg and 120 mmHg and 134 mmHg and 97 mmHg
same,"Systolic pressure, Animal 1-4 individually",[10],156 mmHg and 147 mmHg and 171 mmHg and 135 mmHg
same,Average Diastolic pressure,[11],118.25 mmHg
same,Average Systolic pressure,[11],158 mmHg
same,"Diastolic pressure, Animal 1-4 individually",[12],131 mmHg and 120 mmHg and 130 mmHg and 92 mmHg
same,"Systolic pressure, Animal 1-4 individually",[12],174 mmHg (2×) and 142 mmHg (2×)
same,Average Diastolic pressure,[13],121.75 mmHg
same,Average Systolic pressure,[13],164.5 mmHg
same,"Diastolic pressure, Animal 1-4 individually",[14],122 mmHg and 129 mmHg and 144 mmHg and 92 mmHg
same,"Systolic pressure, Animal 1-4 individually",[14],170 mmHg and 167 mmHg and 178 mmHg and 143 mmHg
same,Average Diastolic pressure,[15],124 mmHg
same,Average Systolic pressure,[15],174.5 mmHg
same,"Diastolic pressure, Animal 1-4 individually",[16],123 mmHg and 129 mmHg and 148 mmHg and 96 mmHg
same,"Systolic pressure, Animal 1-4 individually",[16],182 mmHg and 167 mmHg and 202 mmHg and 147 mmHg
same,Average Diastolic pressure,[17],127.5 mmHg
same,Average Systolic pressure,[17],177 mmHg
same,"Diastolic pressure, Animal 1-4 individually",[18],124 mmHg and 140 mmHg and 148 mmHg and 98 mmHg
same,"Systolic pressure, Animal 1-4 individually",[18],186 mmHg and 170 mmHg and 202 mmHg and 150 mmHg
same,Average Diastolic pressure,[19],133.75 mmHg
same,Average Systolic pressure,[19],185 mmHg
same,"Diastolic pressure, Animal 1-4 individually",[20],123 mmHg and 148 mmHg and 156 mmHg and 108 mmHg
same,"Systolic pressure, Animal 1-4 individually",[20],187 mmHg and 176 mmHg and 212 mmHg and 165 mmHg
same,Average Diastolic pressure,[21],146.25 mmHg
same,Average Systolic pressure,[21],199.5 mmHg
same,"Diastolic pressure, Animal 1-4 individually",[22],169 mmHg and 138 mmHg and 163 mmHg and 115 mmHg
same,"Systolic pressure, Animal 1-4 individually",[22],226 mmHg and 183 mmHg and 211 mmHg and 178 mmHg
same,Average Diastolic pressure,[23],119 mmHg
same,Average Systolic pressure,[23],166.25 mmHg
same,"Diastolic pressure, individual animals",[24],143 mmHg and 145 mmHg and 112 mmHg and 76 mmHg
same,"Systolic pressure, Animal 1-4 individually",[24],190 mmHg and 180 mmHg and 159 mmHg and 136 mmHg
same,Average Diastolic pressure,[25],107.25 mmHg
same,Average Systolic pressure,[25],153 mmHg
same,"Diastolic pressure, individual animals",[26],130 mmHg and 136 mmHg and 91 mmHg and 72 mmHg
same,"Systolic pressure, Animal 1-4 individually",[26],170 mmHg and 181 mmHg and 138 mmHg and 123 mmHg
same,Average Diastolic pressure,[27],96 mmHg
same,Average Systolic pressure,[27],140.5 mmHg
same,"Diastolic pressure, individual animals",[28],110 mmHg and 108 mmHg and 91 mmHg and 75 mmHg
same,"Systolic pressure, Animal 1-4 individually",[28],154 mmHg and 140 mmHg and 138 mmHg and 130 mmHg
